# Experimental data reported in patent US20200362303A1, “MAINTENANCE-AND-AMPLIFICATION METHOD AND DIFFERENTIATION INDUCTION METHOD FOR PRIMORDIAL GERM CELLS/PRIMORDIAL GERM CELL-LIKE CELLS” (KYOTO UNIVERSITY, priority 2017, published 2020).
# B1: BMP5: bone morphogenetic protein 5 cytokine (R&D Systems) (protein, UniProt P22003 317-454, looked up)
# Bone morphogenetic protein 5: AANKRKNQNRNKSSSHQDSSRMSSVGDYNTSEQKQACKKHELYVSFRDLGWQDWIIAPEGYAAFYCDGECSFPLNAHMNATNHAIVQTLVHLMFPDHVPKPCCAPTKLNAISVLYFDDSSNVILKKYRNMVVRSCGCH
# B2: BMP4: bone morphogenetic protein 4 cytokine (R&D Systems) (protein, UniProt P12644 293-408, looked up)
# Bone morphogenetic protein 4: SPKHHSQRARKKNKNCRRHSLYVDFSDVGWNDWIVAPPGYQAFYCHGDCPFPLADHLNSTNHAIVQTLVNSVNSSIPKACCVPTELSAISMLYLDEYDKVVLKNYQEMVVEGCGCR
# B3: BMP7: bone morphogenetic protein 7 cytokine (R&D Systems) (protein, UniProt P18075 293-431, looked up)
# Bone morphogenetic protein 7: STGSKQRSQNRSKTPKNQEALRMANVAENSSSDQRQACKKHELYVSFRDLGWQDWIIAPEGYAAYYCEGECAFPLNSYMNATNHAIVQTLVHFINPETVPKPCCAPTQLNAISVLYFDDSSNVILKKYRNMVVRACGCH
# Assays:
# cultured PGCLC = experiment: Immunofluorescence analysis of STRA8, SCP3, DDX4 in cultured PGCLC; assay type: cell-based, mouse; conditions: cultured PGCLC, c9; BMP4, 5, 7 combined with RA; BMS493 with BMP2; LDN193189 with RA and BMP2
# Procedure: (§1) The PGC/PGCLC expansion medium was constituted of 10% KSR, 2.5% FBS, 0.1 mM NEAA, 1 mM sodium pyruvate, 2 mM L-glutamine, 0.1 mM 2-mercaptoethanol, 100 U/ml penicillin, 0.1 mg/ml […] streptomycin, […] forskolin, and 10 μM rolipram. The entire medium was changed every 2 days from c3. Cytokines/compounds for induction of female fate were provided from c3 to the end of culture. RA and BMP concentrations used were 100 nM and 300 ng/ml, respectively, unless otherwise specified. Brightfield and fluorescence images were captured using an IX73 inverted microscope (Olympus).
# Immunofluorescence (IF) analysis was performed as described previously (Hayashi et al, 2012). The following primary antibodies were used: chicken anti-GFP (ab13970; Abeam), rabbit anti-DDX4 (ab13840; Abeam), mouse anti-DDX4 (ab27591; Abeam), rabbit anti-DAZL (ab34129; Abeam), goat anti-DAZL (sc-27333; Santa Cruz), rabbit anti-STRA8 (ab49602; Abeam), mouse anti-SYCP3 (ab97672; Abeam) and rabbit anti-TEX14 (ab41733; Abeam)IgG. The following secondary antibodies were used: Alexa Fluor 488-goat anti-mouse or chicken IgG; Alexa Fluor 568-goat anti-rabbit IgG and Alexa Fluor 633-goat anti-mouse, anti-chicken IgG; Alexa Fluor 488-donkey anti-mouse IgG; Alexa Fluor 568-donkey anti-rabbit IgG and Alexa Fluor 633-donkey anti-goat IgG. IF images were acquired using a confocal microscope [FV1000 (Olympus) or LSM780 (Zeiss)].
# PGCLC = experiment: CsA or FK506 alone at various concentrations on PGCLC proliferation (fold difference d7/d1); assay type: cell-based, mouse; conditions: 10, 5, 1, 0 μM, in place of FR10
# BV (+) d4 PGCLCs = experiment: Compound library screening for PGCLC proliferation (BV fluorescence by cell analyzer); assay type: cell-based, mouse; conditions: 10 μM; day 7 of culture
# Procedure: d4 PGCLC was seeded by FACS on m220-5 feeders in 96-well plates and BV fluorescence was monitored by cell analyzer (Cellavista; SynenTec). Fluorescence photograph for BV was taken by Cellavista cell analyzer with the following settings: 10× objectives; exposure time: 140 μsec; gain: 4×; binning: 4×4; excitation: 500/24 nm; emission: 542/27 nm. BV fluorescence was detected using the following algorithm/attribute parameters: sensitivity: 10; region merging: 200; min. granule intensity: 50; well edge distance: 200; contrast: 1; size: 3,000; intensity: 255; roughness: 500; granularity: 100; granule intensity: 255; granule count: 10,000; longishness: 100; compactness: 1. The value of “cell nucleus” was used for the detection of BV fluorescence.
# The compound library was screened at concentrations of 10 μM and 1 μM. […] 200 BV (+) d4 PGCLCs induced from BDF1-2 ESC were seeded in the wells of a 96-well plate, and BV fluorescence was measured on the Cellavista cell analyzer on day 1 of culture (c1), c3, c5 and c7. The value of “cell nucleus” was used for the detection of BV fluorescence. […] For each compound, the fold difference in BV fluorescence between c1 and c7 was calculated for each compound and compounds with a fold difference value exceeding 3SD of the mean of the negative control were identified as those that potentiate PGCLC proliferation.
# BMP signaling pathway = experiment: BMP signaling in PGCLC: pSMAD1/5/8 (Western blot) and Id1/Id2 expression; assay type: cell-based, mouse; conditions: PGCLC stimulated by RA and BMP2
# Procedure: For Western blot analysis, 5×10^4 cells were lysed in SDS sample buffer [62.5 mM Tris-HCl (pH 6.8), 2% SDS, 10% glycerol, 0.025% bromophenol blue and 0.14 M-mercaptoethanol] at 90° C. for 5 min. For detection of phosphorylated (p)SMAD1/5/8, the cells were treated with PhosSTOP (Roche) and complete protease inhibitor cocktail (Roche) before lysis. The extracted protein was separated by SuperSep Ace 10-20% gel (Wako), blotted on iBlot2 PVDF transfer membrane (Thermo Fisher) by iBlot2 dry blotting system (Thermo Fisher), and incubated with the primary antibody: rabbit anti-STRA8 IgG (ab49405; Abeam), mouse anti-α tubulin (T9026; Sigma-Aldrich), rabbit anti-pSMAD1/5/8 IgG (#9511; CST), or rabbit anti-SMAD1 IgG (#97435 CST). Primary antibodies were detected with goat anti-rabbit IgG or sheep anti-mouse IgG conjugated to HRP (A0545, M8642; Sigma-Aldrich), followed by Chemi-Lumi One Super (Nacalai). Chemiluminescence image acquisition and analysis was performed using the Fusion Solo system and Fusion-Capt software (M & S Instruments).
# (§2) qPCR was performed using CFX384 (Bio-Rad) and Power SYBR Green (ABI, Foster City, Calif.) according to the manufacturer's instructions. Template cDNA was prepared as described in the “Transcriptome analysis” section and the primers used are listed in Primers.
# [1] = system: female germ cell fate in embryos; experiment: Administration of LDN193189 to pregnant females, germ cell fate at E14.5; assay type: in vivo, mouse
# Procedure: To administer LDN-193189 to pregnant females (ICR), LDN-193189 (sm10559; Sigma-Aldrich) is dissolved in sterile water, and 2.5 mg LDN-193189 was injected intraperitoneally every 12 hours from E11 to E14 per kg body weight.
# as §2
# d4 PGCLC [2] = experiment: Measurement of intracellular cAMP concentration (cAMPGlo Max assay); assay type: cell-based, mouse; conditions: pretreated 30 min at room temperature
# Procedure: The intracellular cAMP concentration was measured using cAMPGlo Max assay kit (Promega) according to the manufacturer's instructions. A standard curve using purified cAMP was prepared by calculating the Δrelative light unit (ΔRLU) (RLU [0 nM]-RLU [X nM]). For each sample, 1×10^4 d4 PGCLC was pretreated with forskolin and/or rolipram for 30 min at room temperature and the ΔRLU (RLU [untreated sample-RLU [treated sample]) was calculated. An increase in the intracellular cAMP level due to chemical treatments was inferred from the cAMP standard curve. Three biological replicates were analyzed for each sample.
# d4 PGCLC [3] = experiment: Expansion culture of d4 PGCLC on m220-5 feeder (cell number fold increase); assay type: cell-based, mouse; conditions: 10 μM alone; BVSC BDF1-2; SCF, m220 feeder
# Procedure: Since the m220-5 feeder treated with MMC was vulnerable to forskolin and rolipram, m220-5 cells were subcultured 3 times with both forskolin and rolipram each at 10 μM and adapted to these compounds before MMC treatment (1-2 μg/ml for 2 hr). d4 PGCLC or E9.5 PGC(BDF1×Stella-EGFP) was selected by FACS, and the cells were seeded on m220-5 cells in GMEM medium containing 10% KSR, 0.1 mM NEAA, 1 mM sodium pyruvate, 0.1 mM 2-mercaptoethanol, 100 U/ml penicillin, 0.1 mg/ml streptomycin, 2 mM L-glutamine, 2.5% FCS, 100 ng/ml SCF, 10 μM forskolin, and 10 μM rolipram. Half of the culture medium was changed every 2 days.
# Expansion culture of PGC/PGCLC to investigate the combined effect of cyclosporin A (CsA) was performed as in Example [I], except that 5 μM CsA was added to the medium in addition to 10 μM forskolin and 10 μM loripram (FR10).
# [4] = system: PGCLC induced from BVSCDT ESC(XY); experiment: Screening for factors inducing female germ cell fate: DT and BV expression by FACS at c7; assay type: cell-based, mouse; conditions: added from c3, read at c7; RA 100 nM, cytokines 500 ng/ml; BMPs in combination with RA
# Procedure: as §1
# The preparation of d4/c0 PGCLC for FACS is described in “ESC culture/induction and PGCLC induction/culture”. To isolate germ cells in vivo, fetal gonads of BVSC, VR or SG mice were cut and processed for FACS according to the procedure described for d4/c0 PGCLC. Culture PGCLC was also prepared by the same method except that, after dissociation, the cells were washed with 0.1% BSA-DMEM containing 100 μg/ml DNase (Sigma-Aldrich), lysed DNA from dead cells was digested to prevent the formation of cell/debris clumps. Fluorescent activity of BV/SG, SC, or DT/VR was detected with FITC, Horizon V500 or PE-Texas Red channels, respectively. FACS data was analyzed using FlowJo or FACS Diva software package.
# In the signal inhibitory experiment, LDN193189 (#04-0074; Stemgent) and BMS493 (B6688; Sigma-Aldrich) dissolved in DMSO were used as ALK2/3 inhibitor and RAR inhibitor, respectively.
molecule,measurement,setting,value
CC1(C)CC=C(C#Cc2ccccc2)c2cc(/C=C/c3ccc(C(=O)O)cc3)ccc21 [BMS493],induction of VR/DDX4 and SCP3 (+) cells (meiotic entry),cultured PGCLC,abolished upregulation of VR/DDX4 as well as induction of SCP3
"C=CC[C@@H]1/C=C(\C)C[C@H](C)C[C@H](OC)[C@H]2O[C@@](O)(C(=O)C(=O)N3CCCC[C@H]3C(=O)O[C@H](/C(C)=C/[C@@H]3CC[C@@H](O)[C@H](OC)C3)[C@H](C)[C@@H](O)CC1=O)[C@H](C)C[C@@H]2OC [FK506, tacrolimus]",proliferative effect on PGCLCs,PGCLC,did not have a proliferative effect
COc1cccc(Nc2c(C(N)=O)cnc3c(C)cc(S(=O)(=O)c4cccc(C(=O)N(C)C)c4)cc23)c1 [GSK256066],colony formation of BV(+) cells,BV (+) d4 PGCLCs,formation of plural colonies with unique flat morphology
c1ccc2c(-c3cnn4cc(-c5ccc(N6CCNCC6)cc5)cnc34)ccnc2c1 [LDN193189],"pSMAD1/5/8 and Id1, Id2 expression",BMP signaling pathway,blocked such effects
same,induction of VR/DDX4 and SCP3 (+) cells (meiotic entry),cultured PGCLC,blocked RA- and BMP2-induced VR activation and meiotic entry in a dose-dependent manner
same,progression to female germ cell fate,"[1]; every 12 hr from E11.5 to E14.0, read at E14.5",caused a significant impairment of progression to female germ cell fate
same,expression of key genes of late PGC/female germ cell development (qPCR),[1]; female VR(+) cells at E14.5,up-regulated key genes in late PGC/female germplasm development
same,male germ cell development (qPCR),[1]; male VR(+) cells at E14.5,unaffected
C=C[C@@]1(C)CC(=O)[C@]2(O)[C@@]3(C)[C@@H](O)CCC(C)(C)[C@@H]3[C@H](O)[C@H](OC(C)=O)[C@@]2(C)O1 [forskolin],cAMP concentration in PGCLC,d4 PGCLC [2],about 4 nM/1×10^4 d4 PGCLC
COc1ccc(C2CNC(=O)C2)cc1OC1CCCC1 (centres unmarked) [rolipram],cAMP concentration in PGCLC,d4 PGCLC [2],about 4 nM/1×10^4 d4 PGCLC
same,effect on proliferation of d4 PGCLC (compound alone),d4 PGCLC [3],relatively mild
B1,induction of VR/DDX4 and SCP3 (+) cells (meiotic entry),cultured PGCLC,able to induce VR/DDX4 and SCP3(+) cells
same,DT and BV expression in BV (+) cells,[4],strongly activated DT and simultaneously down-regulated BV
B2,induction of VR/DDX4 and SCP3 (+) cells (meiotic entry),cultured PGCLC,able to induce VR/DDX4 and SCP3(+) cells
same,DT and BV expression in BV (+) cells,[4],strongly activated DT and simultaneously down-regulated BV
B3,induction of VR/DDX4 and SCP3 (+) cells (meiotic entry),cultured PGCLC,able to induce VR/DDX4 and SCP3(+) cells
same,DT and BV expression in BV (+) cells,[4],strongly activated DT and simultaneously down-regulated BV
